One series relates to IL-1β. As to the kind of experiment: LPS-induced IL-1β in cultured BMDM. The series is classed as cell-based. Particulars: Mus musculus, corticosteroid overnight, LPS 10 ng/ml 3 h. The text has this:
(§1) The immunosuppressive activity of corticosteroids is in part due to their inhibition of NF-κB-induced cytokines including TNF-α, IL-6, and IL-12. Furthermore, expression of some inflammatory-mediated proteins such as STAT1 is mediated via GREs, and not the NF-κB pathway. We therefore expanded murine bone marrow-derived macrophages (BMDM) in vitro, and after 5 days of culture tested the relative efficacy of different corticosteroids to prevent LPS-induced cytokine secretion.
(§2) BMDM mouse bone marrow derived macrophage (mBMDM) cultures were generated from the femur and tibia from two 7–11-week-old C57BL/6 mice. Briefly, bone marrow cells were carefully flushed out, suspended in ice-cold PBS, and spun down. After the supernatant was removed, the pelleted cells were resuspended in 2 ml (ammonium-Chloride-Potassium) ACK lysis buffer (Thermo Fisher, Cat# A1049201) and incubated for 3–4 min, followed by 14 ml ice-cold PBS, and then spun down. The pelleted cells were resuspended in 43 ml complete media [Roswell Park Memorial Institute (RPMI 1640), Gibco, Cat# 11875-093; 10% heat-inactivated fetal bovine serum (HiFBS), HyClone, Cat# SH30406.02; 1% 2 mM L-glutamine; 1% penicillin-streptomycin, Sigma, Cat# P4333-100ML; 1% MEM NEAA, Gibco, Cat# 11140-050; 1% Na Pyruvate, Gibco, Cat# 11360-070; 55 μM 2-Mercaptoethanol, Gibco, Cat#21985-023]. A total of 25 ng/ml M-CSF was added to the culture. Cells were dispensed as 200 μl per well into a 96-well tissue culture plate and incubated at 37°C, 5% CO2 for 4 days. On Day 5, media were removed and 100 μl fresh complete media containing M-CSF were added. Corticosteroids were added and cells incubated at 37°C and 5% CO2 overnight. Untreated cells were incubated with media. On Day 6, 10 ng/ml of lipopolysaccharide (LPS) was added and incubated at 37°C and 5% CO2 for 3 h followed by removal of cell media for cytokine analysis. Cytokines were measured using a Meso Scale Discovery (MSD), V-PLEX kit (V-PLEX Cat# K-15048D, www.mesoscale.com).

Series [1] relates to B10-mdx mice. Nature of the series: Diaphragm hydroxyproline assay (Study 2). The series is classed as in vivo, mouse. As to conditions: 4 months. Here is the method: To determine muscle damage in B10-mdx mice and to evaluate the effects of the three corticosteroids on muscle, we used the hydroxyproline assay to measure the collagen content in diaphragm muscle tissue, a measure of muscle damage and fibrosis. […] Levels were reduced in mice treated with any of the three corticosteroids (Fig. 6d).
Diaphragm muscles were dissected, weighed, and stored at −80°. Tissues were cut to avoid the tendon(s), and 10 ± 1 mg of tissue was homogenized through sonication. Water and hydrochloric acid (12 M) content were normalized prior to hydrolysis at 120° for 3 h in pressure-tight polypropylene vials. After boiling, the hydrolysates were centrifuged at 10 000 × g for 3 min, and 6-μl triplicates of the hydrolysate were added to clear 96-well plates for evaporation in a 60°C oven overnight. The following day, a hydroxyproline kit (Sigma, cat #MAK008) was used to determine the hydroxyproline content. In each sample and standard well, 100 μl Chloramine T/Oxidation buffer mixture was added, incubated for 5 min at room temperature, and followed with 100 μl of perchloric acid diluted DMAB concentrate. The plate was sealed and incubated in a 60°C oven for 90 min. The 96-well plates were read using a BioTek Epoch 2 Spectrophotometer at an absorbance of 560 nm.

The test system of series [2] is B10-mdx mice. As to the kind of experiment: RNA-sequencing of tissues after 2 weeks of treatment (Study 1). As to conditions: vs vehicle-treated B10-mdx.
In the next series the test system is IL-12. As to the kind of experiment: LPS-induced IL-12 in cultured BMDM. It is filed as cell-based. Particulars: Mus musculus, corticosteroid overnight, LPS 10 ng/ml 3 h.
From the text: as §1, §2

The subject of a further series is C57BL/6 mice. Nature of the series: Tail-suspension test in WT mice after 35 days (Study 3). It is filed as in vivo, mouse. As to conditions: daily for 35 days, prednisolone 15 mg/kg or vamorolone 45 mg/kg. Here is the method: In the CNS of these miceFkbp5 mRNA and Ddrd4 mRNA levels were increased (Supplementary Fig. S3d and e). Expression of FKBP5 is reported to be GRE regulated, and Drd4 is a reported biomarker of depression.
• 1) Force-swim test: Animals were single housed and acclimated in the behavior room for 30 min prior to test. A clean 1-L beaker was filled with 700 to 800 ml of 23°C water. Each mouse was placed into the water for 6 min. The total immobility time was recorded. After the test, the animals were dried and placed in a cage on a heating pad for about 10 min before returning to the home cages. • 2) Tail-suspension test: Isolated mice were suspended 50 cm above the floor by surgical tape placed approximately 1 cm from the tip of the tail for 6 min. The total immobility time of mice was measured. Mice were considered immobile only when they hung passively and completely motionless.

As usually defined, the EC50 is the concentration at which the effect is half-maximal. High values mean a less potent agent, low ones a more potent agent. In the series on IL-1β, `CC(=O)OCC(=O)[C@@]12N=C(C)O[C@@H]1C[C@H]1[C@@H]3CCC4=CC(=O)C=C[C@]4(C)[C@H]3[C@@H](O)C[C@@]12C` [Deflazacort] yielded an EC50 of 1.3 nM. For the same molecule, the “diaphragm hydroxyproline (fibrosis)” value in the series on B10-mdx mice [1] (5 and 15 mg/kg) is given as “reduced fibrosis”. Further, in the series on B10-mdx mice [2] (1.25 mg/kg daily), the “Number of genes, Quadriceps, Down-regulated” value worked out at 4245; the “Number of genes, Quadriceps, No Change” value was 7767; the “Number of genes, Quadriceps, Up-regulated” value came to 4298; the “Number of genes, Whole Brain, Down-regulated” value is on record as 31. Also, the “Number of genes, Whole Brain, Up-regulated” value in the series with B10-mdx mice [2] (1.25 mg/kg daily) is reported as 1. Also, in the series on B10-mdx mice [2] (2.5 mg/kg daily), the “Number of genes, Quadriceps, Down-regulated” value was 3706; the “Number of genes, Quadriceps, No Change” value came to 9024; the “Number of genes, Quadriceps, Up-regulated” value is given as 3580; the “Number of genes, Whole Brain, Down-regulated” value was found to be 4. In the series with B10-mdx mice [2] (2.5 mg/kg daily), the “Number of genes, Whole Brain, No Change” value stood at 16306 and the “Number of genes, Whole Brain, Up-regulated” value is listed as 0. For the same molecule, in the series with B10-mdx mice [2] (5 mg/kg daily), the “Number of genes, Quadriceps, Down-regulated” value was 5354; the “Number of genes, Quadriceps, No Change” value is 4889; the “Number of genes, Quadriceps, Up-regulated” value worked out at 6067; the “Number of genes, Whole Brain, Down-regulated” value is reported as 39. Also, in the series on B10-mdx mice [2] (5 mg/kg daily), the “Number of genes, Whole Brain, No Change” value is recorded as 16214 and the “Number of genes, Whole Brain, Up-regulated” value came to 57. Besides, in the series with B10-mdx mice [2] (15 mg/kg daily), the “Number of genes, Quadriceps, Down-regulated” value is 5462; the “Number of genes, Quadriceps, No Change” value amounted to 5024; the “Number of genes, Quadriceps, Up-regulated” value is on record as 5824; the “Number of genes, Whole Brain, Down-regulated” value is recorded as 231. Also, in the series on B10-mdx mice [2] (15 mg/kg daily), the “Number of genes, Whole Brain, No Change” value turned out to be 15981 and the “Number of genes, Whole Brain, Up-regulated” value is 98. The EC50 in the series with IL-12 stood at 3.6 nM.

As for `C[C@]12C=CC(=O)C=C1CC[C@@H]1[C@@H]2[C@@H](O)C[C@@]2(C)[C@H]1CC[C@]2(O)C(=O)CO` [Prednisolone], the EC50 with IL-1β amounted to 3 nM; with IL-12 it was 8.5 nM. Also, in the series on B10-mdx mice [1] (5 mg/kg), the “diaphragm hydroxyproline (fibrosis)” value is recorded as “reduced fibrosis”. Besides, the “Number of genes, Quadriceps, Down-regulated” value with B10-mdx mice [2] (1.2 mg/kg daily) is reported as 3855; in the series on B10-mdx mice [2] (2.4 mg/kg daily), 5216; in the series with B10-mdx mice [2] (5 mg/kg daily), 4173. Besides, the entries for the “Number of genes, Quadriceps, No Change” value in the series with B10-mdx mice [2] (1.2 mg/kg daily) and in the series on B10-mdx mice [2] (5 mg/kg daily) were 8205 and 7883, respectively. The “Number of genes, Quadriceps, Up-regulated” value came to 4250 with B10-mdx mice [2] (1.2 mg/kg daily), 6030 in the series with B10-mdx mice [2] (2.4 mg/kg daily) and 4254 in the series with B10-mdx mice [2] (5 mg/kg daily). Besides, in the series on C57BL/6 mice, the “depression-like behavior as measured by the TST” value is “induced depression-like behavior”.

For the molecule `C[C@@H]1C[C@H]2[C@@H]3CCC4=CC(=O)C=C[C@]4(C)C3=CC[C@]2(C)[C@@]1(O)C(=O)CO` [Vamorolone], in the series with IL-1β, the EC50 turned out to be 32 nM. Besides, in the series with B10-mdx mice [1] (45 mg/kg), the “diaphragm hydroxyproline (fibrosis)” value is “did not reach significance”. Also, the “diaphragm hydroxyproline (fibrosis)” value in the series on B10-mdx mice [1] (15 and 30 mg/kg) is “reduced fibrosis”. In addition, in the series with B10-mdx mice [2] (15 mg/kg daily), the “Number of genes, Quadriceps, Down-regulated” value stood at 3014; the “Number of genes, Quadriceps, No Change” value stood at 9369; the “Number of genes, Quadriceps, Up-regulated” value is on record as 3927; the “Number of genes, Whole Brain, Down-regulated” value is given as 138. For the same molecule, in the series with B10-mdx mice [2] (15 mg/kg daily), the “Number of genes, Whole Brain, No Change” value came to 16068 and the “Number of genes, Whole Brain, Up-regulated” value is on record as 104. In the series on B10-mdx mice [2] (30 mg/kg daily), the “Number of genes, Quadriceps, Down-regulated” value is given as 3138; the “Number of genes, Quadriceps, No Change” value is on record as 10053; the “Number of genes, Quadriceps, Up-regulated” value was determined as 3119; the “Number of genes, Whole Brain, Down-regulated” value was 2087. In the series on B10-mdx mice [2] (30 mg/kg daily), the “Number of genes, Whole Brain, No Change” value is listed as 11760 and the “Number of genes, Whole Brain, Up-regulated” value is on record as 2463. Also, in the series with B10-mdx mice [2] (45 mg/kg daily), the “Number of genes, Quadriceps, Down-regulated” value came out at 331; the “Number of genes, Quadriceps, No Change” value amounted to 15364; the “Number of genes, Quadriceps, Up-regulated” value stood at 615; the “Number of genes, Whole Brain, Down-regulated” value amounted to 1114. Moreover, in the series with B10-mdx mice [2] (45 mg/kg daily), the “Number of genes, Whole Brain, No Change” value turned out to be 14218 and the “Number of genes, Whole Brain, Up-regulated” value came out at 978. For the same molecule, in the series with C57BL/6 mice, the “depression-like behavior as measured by the TST” value is “induced depression-like behavior”. This molecule also gave a 50% effective concentration (EC50) in the series on IL-12 of 30 nM.

The values are drawn from publication PMC10800023 (Human Molecular Genetics, 2023).
